Several values for one entry are separate records, joined by “and”; a condition that tells them apart may be missing. Equal values may be shown once. Inconclusive results and toxic doses are left out. Rule as the data show it: active = T/C of 150% or more; inactive = T/C below 125%.
Test system: L1210 leukemia ip in BDF1 mice, survival T/C
Test: NCI In Vivo Anticancer Drug Screen. Data for tumor model L1210 Leukemia (intraperitoneal) in B6D2F1 (BDF1) mice
Conditions: endpoint: mean survival time, higher = longer survival
How it was run: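 Survival endpoint. Drug-treated group vs vehicle group, expressed as T divided by C. Tumor passaged by transplantation.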

[1] = dose: 100.0 mg/kg/injection, schedule: Q04DX003 (ip), vehicle: Klucel (hydroxypropylcellulose) (HPC)
[2] = dose: 200.0 mg/kg/injection, schedule: Q04DX003 (ip), vehicle: Klucel (hydroxypropylcellulose) (HPC)
[3] = dose: 400.0 mg/kg/injection, schedule: Q04DX003 (ip), vehicle: Klucel (hydroxypropylcellulose) (HPC)
[4] = dose: 100.0 mg/kg/injection, schedule: Q01DX009 (ip), vehicle: Klucel (hydroxypropylcellulose) (HPC)
[5] = dose: 200.0 mg/kg/injection, schedule: Q01DX009 (ip), vehicle: Klucel (hydroxypropylcellulose) (HPC)
[6] = dose: 50.0 mg/kg/injection, schedule: Q01DX009 (ip), vehicle: Klucel (hydroxypropylcellulose) (HPC)
[7] = dose: 100.0 mg/kg/injection, schedule: Q01DX001 (ip), vehicle: Klucel (hydroxypropylcellulose) (HPC)
[8] = dose: 25.0 mg/kg/injection, schedule: Q01DX009 (ip), vehicle: Klucel (hydroxypropylcellulose) (HPC)
[9] = dose: 6.25 mg/kg/injection, schedule: Q01DX009 (ip), vehicle: Klucel (hydroxypropylcellulose) (HPC)
[10] = dose: 12.5 mg/kg/injection, schedule: Q01DX009 (ip), vehicle: Klucel (hydroxypropylcellulose) (HPC)
[11] = dose: 25.0 mg/kg/injection, schedule: Q04DX002 (ip), vehicle: Klucel (hydroxypropylcellulose) (HPC)
[12] = dose: 100.0 mg/kg/injection, schedule: Q04DX003 (ip), vehicle: saline with Tween-80

Measured: T/C

Cc1ccccc1C(Cc1ccc(N2C(N)=NC(N)=NC2(C)C)cc1)C(=O)Nc1ccc(S(=O)(=O)F)cc1 (configuration not stated)
inactive: [1] 98 % of control | [2] 96 % of control | [3] 88 % of control

CCCCC(CC1CCCCC1)C(=O)O (configuration not stated)
inactive: dose: 100.0 mg/kg/injection, schedule: Q01DX001 (ip), vehicle: saline with Tween-80 91 % of control | dose: 200.0 mg/kg/injection, schedule: Q01DX001 (ip), vehicle: saline with Tween-80 95 % of control | dose: 400.0 mg/kg/injection, schedule: Q01DX001 (ip), vehicle: saline with Tween-80 88 % of control

C(=N\Nc1nc2ccccc2s1)/c1ccc2ccccc2n1
inactive: [4] 96 % of control | [5] 96 % of control

OCc1ccccc1O
inactive: [6] 105 % of control | [7] 100 % of control | [4] 102 % of control | dose: 200.0 mg/kg/injection, schedule: Q01DX001 (ip), vehicle: Klucel (hydroxypropylcellulose) (HPC) 100 % of control | [5] 102 % of control | dose: 400.0 mg/kg/injection, schedule: Q01DX001 (ip), vehicle: Klucel (hydroxypropylcellulose) (HPC) 106 % of control

CCOC(=O)c1ccc(NC(=O)Nc2cc(Cl)ccc2C)cc1
inactive: [8] 103 % of control | [6] 108 % of control | [4] 87 % of control and 89 % of control | [5] 98 % of control

O=C1C=C(C(c2ccccc2)c2ccccc2)C(=O)C=C1NS(=O)(=O)c1ccccc1
inactive: dose: 25.0 mg/kg/injection, schedule: Q01DX001 (ip), vehicle: Klucel (hydroxypropylcellulose) (HPC) 106 % of control | dose: 50.0 mg/kg/injection, schedule: Q01DX001 (ip), vehicle: Klucel (hydroxypropylcellulose) (HPC) 97 % of control | [7] 95 % of control

Clc1c(C(Cl)(Cl)Cl)nc2ccccc2c1Br
inactive: [9] 101 % of control | [10] 97 % of control | [8] 97 % of control

O=C(NNS(=O)(=O)c1ccccc1)C1Oc2ccccc2O1
inactive: [11] 96 % of control | dose: 50.0 mg/kg/injection, schedule: Q04DX002 (ip), vehicle: Klucel (hydroxypropylcellulose) (HPC) 93 % of control | dose: 100.0 mg/kg/injection, schedule: Q04DX002 (ip), vehicle: Klucel (hydroxypropylcellulose) (HPC) 101 % of control

O=NN1CCN(N=O)CC1
inactive: dose: 100.0 mg/kg/injection, schedule: Q01DX001 (ip), vehicle: carboxymethylcellulose (CMC) 94 % of control | [12] 101 % of control

Cc1ccc(SC(=O)CCl)cc1
inactive: dose: 66.0 mg/kg/injection, schedule: Q01DX009 (ip), vehicle: gum acacia 93 % of control | dose: 100.0 mg/kg/injection, schedule: Q01DX009 (ip), vehicle: gum acacia 90 % of control | dose: 100.0 mg/kg/injection, schedule: Q04DX003 (ip), vehicle: gum acacia 102 % of control | dose: 150.0 mg/kg/injection, schedule: Q01DX009 (ip), vehicle: gum acacia 90 % of control | dose: 200.0 mg/kg/injection, schedule: Q01DX009 (ip), vehicle: gum acacia 97 % of control | dose: 200.0 mg/kg/injection, schedule: Q04DX003 (ip), vehicle: gum acacia 96 % of control | dose: 400.0 mg/kg/injection, schedule: Q04DX003 (ip), vehicle: gum acacia 94 % of control

CC(=O)Nc1ccc(S(=O)(=O)N(C)Cc2ccccc2)cc1
inactive: [4] 94 % of control | [5] 102 % of control | dose: 400.0 mg/kg/injection, schedule: Q01DX009 (ip), vehicle: Klucel (hydroxypropylcellulose) (HPC) 107 % of control

CN1CCCCC1C[CH2][Sn]([c]1ccccc1)([c]1ccccc1)[c]1ccccc1 (configuration not stated)
inactive: dose: 3.12 mg/kg/injection, schedule: Q01DX009 (ip), vehicle: Klucel (hydroxypropylcellulose) (HPC) 90 % of control | [9] 90 % of control | [10] 92 % of control | dose: 12.5 mg/kg/injection, schedule: Q04DX002 (ip), vehicle: Klucel (hydroxypropylcellulose) (HPC) 93 % of control | [11] 96 % of control

COc1[nH]c(=O)[nH]c(=O)c1OP(=O)(OC)OC
inactive: dose: 50.0 mg/kg/injection, schedule: Q01DX001 (ip), vehicle: saline 98 % of control | dose: 100.0 mg/kg/injection, schedule: Q01DX001 (ip), vehicle: saline 98 % of control | dose: 200.0 mg/kg/injection, schedule: Q01DX001 (ip), vehicle: saline 98 % of control | dose: 400.0 mg/kg/injection, schedule: Q01DX001 (ip), vehicle: saline 89 % of control

Cn1c2ccccc2c2cc[n+]3c(c21)CCCC3
inactive: dose: 5.0 mg/kg/injection, schedule: Q01DX001 (ip), vehicle: saline 108 % of control | dose: 10.0 mg/kg/injection, schedule: Q01DX001 (ip), vehicle: saline 108 % of control | dose: 20.0 mg/kg/injection, schedule: Q01DX001 (ip), vehicle: saline 115 % of control | dose: 40.0 mg/kg/injection, schedule: Q01DX001 (ip), vehicle: saline 115 % of control

CC(=O)OC1CCC2(C)C3CCC4(C)C(CC5OC54C(C)=O)C3CC3OC32C1 (configuration not stated)
inactive: dose: 50.0 mg/kg/injection, schedule: Q01DX001 (sc), vehicle: steriod suspending solution 97 % of control | dose: 100.0 mg/kg/injection, schedule: Q01DX001 (sc), vehicle: steriod suspending solution 101 % of control | dose: 200.0 mg/kg/injection, schedule: Q01DX001 (sc), vehicle: steriod suspending solution 106 % of control | dose: 400.0 mg/kg/injection, schedule: Q01DX001 (sc), vehicle: steriod suspending solution 113 % of control

Cc1ccc(N=Nc2c(C)nc(N)nc2C)cc1
inactive: dose: 75.0 mg/kg/injection, schedule: Q01DX001 (ip), vehicle: saline 97 % of control | dose: 150.0 mg/kg/injection, schedule: Q01DX001 (ip), vehicle: saline 91 % of control

CCCCCN(C)N=Nc1ccccc1C(N)=O
inactive: dose: 100.0 mg/kg/injection, schedule: Q01DX001 (ip), vehicle: other 106 % of control | [4] 114 % of control | [1] 109 % of control | dose: 200.0 mg/kg/injection, schedule: Q01DX001 (ip), vehicle: other 112 % of control | [5] 115 % of control | [2] 101 % of control | dose: 400.0 mg/kg/injection, schedule: Q01DX001 (ip), vehicle: other 115 % of control | [3] 112 % of control

CC(=O)CCCC(C)C1CCC2[C@H]3CC=C4C[C@H](O)CC[C@@]4(C)C3CC[C@@]12C (some centres not stated)
inactive: [6] 96 % of control | [4] 100 % of control | [5] 102 % of control

CC1CN(C(=N)C#N)C(C)CN1C(=N)C#N (configuration not stated)
inactive: dose: 100.0 mg/kg/injection, schedule: Q01DX009 (ip), vehicle: saline with Tween-80 92 % of control | [12] 109 % of control | dose: 200.0 mg/kg/injection, schedule: Q04DX003 (ip), vehicle: saline with Tween-80 104 % of control
